Test results reported in patent US20250376441A1, “NOVEL COMPOUND AND PHARMACEUTICAL COMPOSITION COMPRISING SAME AS ACTIVE INGREDIENT” (Industry-Academic Cooperation Foundation, Yonsei University, priority 2017, published 2025).
Like-named read-outs stand apart in the source and are kept apart here.

What was measured:
[1] = target: AMP-activated protein kinase (AMPK); experiment: AMPK kinase assay (luminescence, purified enzyme, ATP, substrate peptide); assay type: biochemical; settings: AMPK activation
Experimental: In order to identify an effect of the Preparation Example 6 having the highest docking score in Experimental Example 1 on activity of the AMP-activated protein kinase (AMPK), a kinase assay was performed. The kinase assay was performed as follows. […] Then, purified AMP-activated protein kinase and ATP were allowed to react on a substrate peptide for the AMP-activated protein kinase, and degrees of luminescence thereof were shown as EC50 in Table 3 and FIG. 3.

[2] = test system: amyloid-beta peptide1-42 degenerative neurological disease-induced mice; experiment: Probe test (Morris water maze, platform removed); assay type: in vivo, ICR mice; settings: 90 seconds without platform
Experimental: In order to induce a degenerative neurological disease, the experimental animals of Preparatory Example 1 were anesthetized by inhalation with 2.5% isoflurane. Then, 1 μg of amyloid-beta peptide1-42, a degenerative neurological disease-inducing substance, was administered to the animals at both hippocampal positions (AP: −2.3, L: ±2.0, H: −1.5) using a stereotaxic apparatus. […] For the administration, 1 μl was injected, at a flow rate of 0.2 μl/min, with a […] gas-tight glass syringe (Hamilton, Reno, NV, USA) using a perfusion pump (Pump 22, Harvard Apparatus, South Natick, MA, USA). Subsequently, the syringe was allowed to stand for 5 minutes and then removed.
Then, a degenerative neurological disease was induced as in Preparation Example 2.
A circular pool (diameter: 120 cm, height: 75 cm) was filled with water to a depth of 25±1 cm as in FIG. 4, and a 24 cm platform was prepared by hiding it 1 cm below the water surface. Space cues were installed on the four sides of the wall so that the aminals can identify locations, and skimmed milk powder was dissolved into water so that the animals cannot identify the platform with naked eyes. One day before the experiment, all the experimental animals were allowed to swim freely for 1 minute in a water bath having no platform, so that the animals can adapt to the swimming situation. After that, a test group was allowed to start, in any order, from two of the three quadrants except the quadrant where the platform was placed, and allowed to find the platform for 60 seconds. In a case where an animal finds the platform, the animal was allowed to stay thereon for 20 seconds. […] As soon as end of the position learning time, which is the 20-second staying time, the animal was allowed to start again from any quadrant, and the time and distance to reach the platform were measured. The procedure was performed four times a day, and all procedures were taken with a camera and analyzed with a video tracking system (Panlab, USA). Probe trials were made on the fifth day after the four-day experiment in toal was completed. The test group was allowed to swim freely for 90 seconds without the platform, thereby performing evaluation on whether the test group holds a memory of the platform location. The results are illustrated in FIGS. 5 to 7.
The results are illustrated in FIGS. 8 and 9.

acetylcholine hydrolase = assay type: in vivo; settings: brain tissue
Experimental: (§1) Subsequently, the syringe was allowed to stand for 5 minutes and then removed.
Then, acetylcholine hydrolase activity was measured by the following method. To a microplate were continuously added 300 μl of 0.1 M Tris buffer, pH 8.0 (Trizma HCl±Trizmabase), 20 μl of 0.01 M dithionitrobenzoic acid (DTNB; Sigma, USA), 10 μl of brain tissue homogenate (enzyme suspension). Immediately before absorbance measurement, 10 μl of 0.1 M acetylthiocholine chloride (Sigma, USA) as a substrate was added thereto. An absorbance meter was used to observe absorbance changes at 405 nm for 5 minutes, so that acetylcholine hydrolase activity (unit/min/mg protein) was measured.

[3] = test system: acetylcholine in brain tissues; experiment: Acetylcholine content in brain tissue; assay type: in vivo, ICR mice
Experimental: as §1
Measurement of acetylcholine in brain tissues was performed based on response of o-acyl derivatives with alkaline hydroxylamine. Specifically, 50 μl of brain tissue was taken and 50 μl of 1% hydroxylamine (Sigma, USA) was added and mixed. […] Finally, 500 μl of FeCl3 (10% in 0.1 N HCl) was added to measure an acetylcholine level (umole/mg protein), and then the absorbance was measured at 530 nm.

[4] = test system: Tunel positive cells in brain tissue; experiment: Apoptosis level in brain tissue by TUNEL assay; assay type: in vivo, ICR mice
Experimental: as §1
Then, an apoptosis level was checked through TUNEL assay. The TUNEL assay is a method to search for cells that have undergone apoptosis by attaching a fluorescent substance to ends of DNA fragments cleaved due to apoptosis. The extracted brain tissue of the experimental animal is fixed by perfusion with 4% formaldehyde. Then, the brain tissue was embedded in paraffin and sectioned to a thickness of 5 μm. The brain tissue fixed on a slide was subjected to a TUNEL assay kit so that the end portions where DNA having undergone apoptosis had been fragmented are fluorescence-stained, and checked by a fluorescence microscope.

[5] = assay type: in vitro ADME; settings: PAMPA
Text: The results are illustrated in FIG. 17.

[6] = test system: Salmonella typhimurium TA100
Experimental: For each strain, treatment with a single concentration of 200 μg/plate was performed in triplicate and mutation was checked.

NIH 3T3 = experiment: Cytotoxicity test (Cyto X cell viability assay kit), NIH 3T3; assay type: cell-based; settings: Mus musculus, NIH3T3
Experimental: (§2) In order to identify whether the Preparation Example 6 according to the present invention is toxic to cells, a cytotoxicity test was conducted at the Korea Research Institute of Chemical Technology using the Cyto X™ cell viability assay kit ([…]).

CHO-K1 = experiment: Cytotoxicity test (Cyto X cell viability assay kit), CHO-K1; assay type: cell-based; settings: Cricetulus griseus
Experimental: as §2

[7] = Lipophilicity (pKa, LogP); assay type: physicochemical; settings: ACD/Labs T3 (pH-metrior)
Experimental: For a preliminary examination on clinical application of the Preparation Example 6, evaluation on lipophilicity and solubility was performed.

For COc1ccc(OC)c(/C=C/C(=O)c2ccc(NS(=O)(=O)c3ccc(Cl)cc3)cc2)c1 [Preparation Example 6, (E)-4-Chloro-N-(4-(3-(2,5-dimethoxyphenyl)acryloyl)phenyl)benzenesulfonamide], the EC50 [1] was 0.637 µM, the “swimming time in the target quadrant” value ([2]; 1 mg, p<0.05) was 31.08 ± 6.33 s and the “swimming time in the target quadrant” value ([2]; 10 mg, p<0.01) was 36.73 ± 7.78 s. For the same compound, the “swimming time in the target quadrant” value ([2]; 100 mg, p<0.01) was 36.51 ± 6.55 s, the acetylcholine hydrolase activity (acetylcholine hydrolase; 10 mg) was 0.25±0.07 U/mg protein and the acetylcholine hydrolase activity (acetylcholine hydrolase; 100 mg) was 0.24±0.05 U/mg protein. For the same compound, the acetylcholine content ([3]; 1 mg, p<0.05) was 22.31±1.80 μmole/mg protein, the acetylcholine content ([3]; 10 mg, p<0.01) was 23.08±1.54 μmole/mg protein and the acetylcholine content ([3]; 100 mg, p<0.01) was 22.79±1.45 μmole/mg protein. The “number of Tunel positive cells” value ([4]; 1 mg, p<0.05) was 88.83±18.98, the “number of Tunel positive cells” value ([4]; 10 mg, p<0.01) was 69.5±17.87 and the “number of Tunel positive cells” value ([4]; 100 mg, p<0.01) was 67.00±19.54. For the same compound, the degree of permeability [5] was “medium value”, the “membrane permeability measured value” [5] was −4.4±0.152 and the “Ames reverse mutation test outcome” value ([6]; TA100, 200 μg/plate, with or without S9) was “negative”. The “Reverse mutation [factor] with S-9 mix” value ([6]; TA100, with S-9, factor versus control) was “[1.0]”, the “Reverse mutation/dish (mean ± SD) with S-9 mix” value ([6]; TA100, with S-9, Preparation Example 6 at 200 μg/plate, Benzo(a)pyrene concentration 2) was 117 ± 4 and the “Reverse mutation [factor] w/o S-9 mix” value ([6]; TA100, without S-9, factor versus control) was “[0.9]”. For the same compound, the “Reverse mutation/dish (mean ± SD) w/o S-9 mix” value ([6]; TA100, without S-9, Preparation Example 6 at 200 μg/plate, Sodium azide concentration 1) was 104 ± 12, the IC50 (NIH 3T3) was > 100 µM and the IC50 (CHO-K1) was > 100 µM. It also gave a logP [7] of 4.75.
